From patent US20230364243A1, “CANCER-SELECTIVE TARGET DEGRADATION BY TARGETING GROUP CAGED PROTACS” (Beth Israel Deaconess Medical Center, Inc., priority 2021, published 2023)

Tests used:
[1] = target: T1, NPM-ALK fusion protein (Homo sapiens, UniProt Q9UM73); assay: Western blot analysis of NPM-ALK fusion protein in SU-DHL-1 cells; format: cell-based; conditions: for effect in degrading NPM-ALK fusion protein after pretreatment with folic acid: free folic acid pretreatment; for DC50: read-out: DC50 of NPM-ALK fusion protein degradation
T1 construct: endogenous in cells; host or cells: SU-DHL-1; the other entry of the earlier key: NPM1 (P06748, Nucleophosmin)
T1 sequence (Q9UM73 with tags, fused parts or gaps): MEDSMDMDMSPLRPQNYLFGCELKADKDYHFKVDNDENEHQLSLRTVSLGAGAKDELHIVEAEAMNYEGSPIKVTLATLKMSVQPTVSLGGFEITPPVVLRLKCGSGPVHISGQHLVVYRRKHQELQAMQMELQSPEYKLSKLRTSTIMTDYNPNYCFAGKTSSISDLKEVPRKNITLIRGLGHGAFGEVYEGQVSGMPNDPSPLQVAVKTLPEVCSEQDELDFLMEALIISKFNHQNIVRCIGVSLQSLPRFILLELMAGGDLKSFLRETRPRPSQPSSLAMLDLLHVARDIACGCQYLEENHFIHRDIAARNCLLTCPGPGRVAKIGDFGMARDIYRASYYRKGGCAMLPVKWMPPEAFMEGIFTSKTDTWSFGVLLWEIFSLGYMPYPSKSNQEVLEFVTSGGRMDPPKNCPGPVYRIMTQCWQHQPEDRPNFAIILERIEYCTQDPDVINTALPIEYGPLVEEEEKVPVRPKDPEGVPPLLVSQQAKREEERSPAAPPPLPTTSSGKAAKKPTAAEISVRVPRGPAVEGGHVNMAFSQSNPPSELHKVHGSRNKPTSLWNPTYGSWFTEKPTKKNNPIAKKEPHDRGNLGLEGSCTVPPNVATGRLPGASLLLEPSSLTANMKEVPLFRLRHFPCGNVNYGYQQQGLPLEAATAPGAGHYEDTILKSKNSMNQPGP
Experimental: (§1) For folic acid competitive degradation assay, cells were pretreated with folic acid (F8758, Sigma-Aldrich, 2.5 mM) for 2 hours, followed by the treatment of indicated PROTACs for indicated time. For endocytosis inhibition, cells were pretreated with Pitostop 2 (SML1169, Sigma-Aldrich, 1-30 μM) or MCD (21633, Cayman, 0.03-1 mM) for 12 hours, followed by co-treatment with indicated PROTACs for another 12 hours. For proteasome or E3 ligase inhibition assay, cells were treated with MG132 (BML-P11020, ENZO Life Sciences, 10 μM) or MLN4924 (S7109, SelleckChem, 1 μM) another 12 hours. For GSH-stimulating assay, cells were treated with S-Acetyl-GSH (29624, Cayman, 1 mM) with indicated PROTACs for 12 or 72 hours.
(§2) Cells were lysed in EBC buffer (50 mM Tris pH 7.5, 120 mM NaCl, 0.5% NP-40) supplemented with protease inhibitors (Pierce) and phosphatase inhibitors (phosphatase inhibitor cocktail set I and II, Calbiochem). The protein concentrations of the lysates were measured using the Bio-Rad protein assay reagent on a Beckman Coulter DU-800 spectrophotometer. The lysates were then resolved by SDS-PAGE and immunoblotted with indicated antibodies.
(§3) Cells were lysed in EBC buffer (50 mM Tris-HCl pH 7.5, 120 mM NaCl and 0.5% NP-40) supplemented with protease inhibitors (Pierce) and phosphatase inhibitors (phosphatase inhibitor cocktailset I and II, Calbiochem). The protein concentrations of the lysates were measured using the Bio-Rad protein assay reagent on a Beckman Coulter DU-800 spectrophotometer. The lysates (40 μg protein) werethen resolved by 10% SDS-olyacrylamide gel electrophoresis (PAGE) at 130 V for 80 min and immunoblotted with indicated antibodies at 4° C. overnight, washed four times with Tris-buffered saline with 0.1% Tween-20 (TBST) buffer, incubated with secondary antibody for 1 hour at room temperature, and then washed 4 times with TBST.

[2] = test system: SU-DHL-1 cells; assay: Cell viability of SU-DHL-1 cells (CCK-8); format: cell-based; conditions: 72 hours; for IC50: Homo sapiens, read-out: IC50 cell viability / proliferation
Experimental: as §1
Cell in 96-well plates were treated with drugs as indicated, and then incubated with 10 μl/well of CCK-8 (cell counting Kit-8) solution at for 1-2 hours, followed by the measurement of optical density at 450 nm.

[3] = Release of active compound after incubation with DTT in PBS at 37° C., HPLC analysis; format: physicochemical; conditions: 37° C. in PBS; for release of MS4048 after DTT treatment: DTT (10 equiv), HPLC
Experimental: FA-S2-POMA and the negative control FA-C2-POMA were incubated with dithiothreitol (DTT) under physiological conditions (37° C. in phosphate buffered saline (PBS)) and then subjected to HPLC analysis.
The effects of these folate caged PROTACS on ALK fusion protein degradation was assessed in cancer cells. FA-S2-MS4048 and FA-C2-MS4048 were incubated with DTT at 37° C. in PBS. […] Furthermore, compared to FA-S2-POMA (FIG. 11B), the release rate of FA-S2-MS4048 is slower.

[4] = target: T2, EML4-ALK fusion protein (Homo sapiens, UniProt Q9UM73); assay: Western blot analysis of EML4-ALK fusion protein in NCI-H2228 and NCI-H3122 NSCLC cells; format: cell-based
T2 construct: endogenous in cells; host or cells: NCI-H2228, NCI-H3122; the other entry of the earlier key: EML4 (Q9HC35, Echinoderm microtubule-associated protein-like 4)
T2 sequence (Q9UM73 1058-1620 limits assumed): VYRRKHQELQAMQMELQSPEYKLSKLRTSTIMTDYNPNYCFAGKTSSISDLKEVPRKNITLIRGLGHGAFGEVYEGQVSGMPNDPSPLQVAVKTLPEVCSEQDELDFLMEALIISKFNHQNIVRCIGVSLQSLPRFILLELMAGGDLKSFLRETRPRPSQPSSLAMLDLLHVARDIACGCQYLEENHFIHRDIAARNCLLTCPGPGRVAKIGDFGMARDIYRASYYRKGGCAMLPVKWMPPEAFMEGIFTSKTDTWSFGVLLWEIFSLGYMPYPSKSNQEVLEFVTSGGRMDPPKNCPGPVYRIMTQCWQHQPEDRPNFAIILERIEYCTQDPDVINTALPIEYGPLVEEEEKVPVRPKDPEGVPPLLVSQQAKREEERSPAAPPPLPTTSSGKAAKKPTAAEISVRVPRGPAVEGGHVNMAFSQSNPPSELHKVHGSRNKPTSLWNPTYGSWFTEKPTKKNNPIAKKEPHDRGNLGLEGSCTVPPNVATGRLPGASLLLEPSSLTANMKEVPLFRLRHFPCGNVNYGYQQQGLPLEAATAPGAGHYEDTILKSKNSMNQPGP
Experimental: as §1, §2, §3

[5] = test system: MEK1 and MEK2; assay: Western blot analysis of MEK1 and MEK2 levels in HT29 and SK-MEL-28 cells; format: cell-based; conditions: HT29 and SK-MEL-28 cells, dose- and time-dependent
Experimental: as §1, §2, §3

Compound | IC50 [2] | release of MS4048 after DTT treatment [3] | effect in degrading NPM-ALK fusion protein after pretreatment with folic acid ([1]; SU-DHL-1 cells) | degradation of NPM-ALK fusion protein ([1]; SU-DHL-1 cells) | degradation of EML4-ALK fusion proteins [4] | DC50 ([1]; SU-DHL-1 cells, 12 hours) | further results
Cc1cc(Nc2ncc(Cl)c(Nc3ccccc3S(=O)(=O)C(C)C)n2)c(OC(C)C)cc1C1CCN(C(=O)CCCC(=O)N[C@H](C(=O)N2C[C@H](OC(=O)CCCCn3cc(CNC(=O)CC[C@H](NC(=O)c4ccc(NCc5cnc6nc(N)[nH]c(=O)c6n5)cc4)C(=O)O)nn3)C[C@H]2C(=O)N[C@@H](C)c2ccc(-c3scnc3C)cc2)C(C)(C)C)CC1 [Folate-MS99, N^2-(4-(((2-amino-4-oxo-3,4-dihydropteridin-6-yl)methyl)amino)benzoyl)-N^5-((1-(5-(((3R,5S)-1-((S)-2-(5-(4-(4-((5-chloro-4-((2-(isopropylsulfonyl)phenyl)amino)pyrimidin-2-yl)amino)-5-isopropoxy-2-methylphenyl)piperidin-1-yl)-5-oxopentanamido)-3,3-dimethylbutanoyl)-5-(((S)-1-(4-(4-methylthiazol-5-yl)phenyl)ethyl)carbamoyl)pyrrolidin-3-yl)oxy)-5-oxopentyl)-1H-1,2,3-triazol-4-yl)methyl)-L-glutamine] | 200 nM | – | antagonized the effect | degraded NPM-ALK fusion protein efficiently | efficiently degraded the EML4-ALK fusion proteins | 100 nM | effect in degrading EML4-ALK fusion protein after pretreatment with free folic acid ([4]; free folic acid pretreatment): antagonized the effect
Cc1cc(Nc2ncc(Cl)c(Nc3ccccc3S(=O)(=O)C(C)C)n2)c(OC(C)C)cc1C1CCN(C(=O)CCCC(=O)N[C@H](C(=O)N2C[C@H](NC(=O)CCCCn3cc(CNC(=O)CC[C@H](NC(=O)c4ccc(NCc5cnc6nc(N)[nH]c(=O)c6n5)cc4)C(=O)O)nn3)C[C@H]2C(=O)N[C@@H](C)c2ccc(-c3scnc3C)cc2)C(C)(C)C)CC1 [Folate-MS99N, N^2-(4-(((2-amino-4-oxo-3,4-dihydropteridin-6-yl)methyl)amino)benzoyl)-N^5-((1-(5-(((3R,5S)-1-((S)-2-(5-(4-(4-((5-chloro-4-((2-(isopropylsulfonyl)phenyl)amino)pyrimidin-2-yl)amino)-5-isopropoxy-2-methylphenyl)piperidin-1-yl)-5-oxopentanamido)-3,3-dimethylbutanoyl)-5-(((S)-1-(4-(4-methylthiazol-5-yl)phenyl)ethyl)carbamoyl)pyrrolidin-3-yl)amino)-5-oxopentyl)-1H-1,2,3-triazol-4-yl)methyl)-L-glutamine] | – | – | – | – | – | – | degrading NPM-ALK ([1]; SU-DHL-1 cells, even at 3 μM): incapable of degrading NPM-ALK
Cc1ncsc1-c1ccc([C@H](C)NC(=O)[C@@H]2C[C@@H](NC(=O)CCCCn3cc(CNC(=O)CC[C@H](NC(=O)c4ccc(NCc5cnc6nc(N)[nH]c(=O)c6n5)cc4)C(=O)O)nn3)CN2C(=O)[C@@H](NC(=O)CCCCCCCCCCNCCCONC(=O)c2ccc(F)c(F)c2Nc2ccc(I)cc2F)C(C)(C)C)cc1 [Folate-MS432N, N^2-(4-(((2-amino-4-oxo-3,4-dihydropteridin-6-yl)methyl)amino)benzoyl)-N^5-((1-(5-(((3R,5S)-1-((S)-2-(11-((3-((3,4-difluoro-2-((2-fluoro-4-iodophenyl)amino)benzamido)oxy)propyl)amino)undecanamido)-3,3-dimethylbutanoyl)-5-(((S)-1-(4-(4-methylthiazol-5-yl)phenyl)ethyl)carbamoyl)pyrrolidin-3-yl)amino)-5-oxopentyl)-1H-1,2,3-triazol-4-yl)methyl)-L-glutamine] | – | – | – | – | – | – | degradation of MEK1 and MEK2 [5]: could not do so
Cc1cc(Nc2ncc(Cl)c(Nc3ccccc3S(=O)(=O)C(C)C)n2)c(OC(C)C)cc1C1CCN(C(=O)CCCC(=O)N[C@H](C(=O)N2C[C@H](O)C[C@H]2C(=O)N[C@@H](C)c2ccc(-c3scnc3C)cc2)C(C)(C)C)CC1 [MS99, (2S,4R)-1-((S)-2-(5-(4-(4-((5-chloro-4-((2-(isopropylsulfonyl)phenyl)amino)pyrimidin-2-yl)amino)-5-isopropoxy-2-methylphenyl)piperidin-1-yl)-5-oxopentanamido)-3,3-dimethylbutanoyl)-4-hydroxy-N-((S)-1-(4-(4-methylthiazol-5-yl)phenyl)ethyl)pyrrolidine-2-carboxamide] | 91.4 nM | – | – | degraded NPM-ALK fusion protein efficiently | – | 30 nM | –

More lines, main results first:

IC50 [2] | release of MS4048 after DTT treatment [3] | effect in degrading NPM-ALK fusion protein after pretreatment with folic acid ([1]; SU-DHL-1 cells) | Compound | degradation of NPM-ALK fusion protein ([1]; SU-DHL-1 cells) | degradation of EML4-ALK fusion proteins [4] | DC50 ([1]; SU-DHL-1 cells, 12 hours) | further results
9500 nM | no release of MS4048 | – | Cc1cc(Nc2ncc(Cl)c(Nc3ccccc3S(=O)(=O)C(C)C)n2)c(OC(C)C)cc1C1CCN(CC(=O)NCCNc2cccc3c2C(=O)N(C2CCC(=O)N(C(=O)OCCCCCCn4cc(CNC(=O)CC[C@H](NC(=O)c5ccc(NCc6cnc7nc(N)[nH]c(=O)c7n6)cc5)C(=O)O)nn4)C2=O)C3=O)CC1 (stereo partly drawn) [FA-C2-MS4048, N^2-(4-(((2-amino-4-oxo-3,4-dihydropteridin-6-yl)methyl)amino)benzoyl)-N^5-((1-(6-((3-(4-((2-(2-(4-(4-((5-chloro-4-((2-(isopropylsulfonyl)phenyl)amino)pyrimidin-2-yl)amino)-5-isopropoxy-2-methylphenyl)piperidin-1-yl)acetamido)ethyl)amino)-1,3-dioxoisoindolin-2-yl)-2,6-dioxopiperidine-1-carbonyl)oxy)hexyl)-1H-1,2,3-triazol-4-yl)methyl)-L-glutamine] | had some degradation effect | – | – | –
465 nM | efficient release of MS4048 | blocked the effect | Cc1cc(Nc2ncc(Cl)c(Nc3ccccc3S(=O)(=O)C(C)C)n2)c(OC(C)C)cc1C1CCN(CC(=O)NCCNc2cccc3c2C(=O)N(C2CCC(=O)N(C(=O)OCCSSCCn4cc(CNC(=O)CC[C@H](NC(=O)c5ccc(NCc6cnc7nc(N)[nH]c(=O)c7n6)cc5)C(=O)O)nn4)C2=O)C3=O)CC1 (stereo partly drawn) [FA-S2-MS4048, N^2-(4-(((2-amino-4-oxo-3,4-dihydropteridin-6-yl)methyl)amino)benzoyl)-N^5-((1-(2-((2-((3-(4-((2-(2-(4-(4-((5-chloro-4-((2-(isopropylsulfonyl)phenyl)amino)pyrimidin-2-yl)amino)-5-isopropoxy-2-methylphenyl)piperidin-1-yl)acetamido)ethyl)amino)-1,3-dioxoisoindolin-2-yl)-2,6-dioxopiperidine-1-carbonyl)oxy)ethyl)disulfanyl)ethyl)-1H-1,2,3-triazol-4-yl)methyl)-L-glutamine] | effectively degraded | effectively degraded | – | potency in degrading the ALK proteins compared with FA-C2-MS4048 ([1]; ALK fusion proteins): more potent than FA-C2-MS4048; potency in degrading the proteins of interest compared with MS4048 ([1]; ALK fusion proteins): less potent than its uncaged analog, MS4048; time at which significant degradation was observed ([1]; SU-DHL-1 cells, 3 μM): ≤ 1 h; effect on degrading NPM-ALK after depletion of endogenous CRBN E3 ligase ([1]; SU-DHL-1 cells, 3 μM, 12 hours): significantly reduced the effect; effect on degrading NPM-ALK after knockdown of FOLR1 via shRNAs ([1]; SU-DHL-1 cells, 3 μM, 12 hours): completely abolished the effect; degradation of NPM-ALK with MG132 or MLN4924 ([1]; SU-DHL-1 cells, 10 μM MG132 or 1 μM MLN4924): blocked the degradation of NPM-ALK; potency in degrading NPM-ALK after pretreatment with S-Ac-GSH ([1]; SU-DHL-1 cells, S-Ac-GSH 1 mM): significant increase in potency; degradation of EML4-ALK with MG132 or MLN4924 ([4]; MG132 or MLN4924): blocked the degradation; potency in inhibiting proliferation after pretreatment with folic acid ([2]; 2.5 mM folic acid): significantly reduced potency; potency in inhibiting proliferation after pretreatment with S-Ac-GSH ([2]; S-Ac-GSH 1 mM): significantly increased potency; release rate compared to FA-S2-POMA ([3]; DTT): slower
